Assay results: publication PMC8338929, “Acetylation turns leucine into a drug by membrane transporter switching” (Scientific Reports, 2021)

Biological target: T1, human MCT1 (SLC16A1) (Homo sapiens, UniProt P53985)
T1 construct: host or cells: MDCK-II
T1 sequence (P53985 1-500): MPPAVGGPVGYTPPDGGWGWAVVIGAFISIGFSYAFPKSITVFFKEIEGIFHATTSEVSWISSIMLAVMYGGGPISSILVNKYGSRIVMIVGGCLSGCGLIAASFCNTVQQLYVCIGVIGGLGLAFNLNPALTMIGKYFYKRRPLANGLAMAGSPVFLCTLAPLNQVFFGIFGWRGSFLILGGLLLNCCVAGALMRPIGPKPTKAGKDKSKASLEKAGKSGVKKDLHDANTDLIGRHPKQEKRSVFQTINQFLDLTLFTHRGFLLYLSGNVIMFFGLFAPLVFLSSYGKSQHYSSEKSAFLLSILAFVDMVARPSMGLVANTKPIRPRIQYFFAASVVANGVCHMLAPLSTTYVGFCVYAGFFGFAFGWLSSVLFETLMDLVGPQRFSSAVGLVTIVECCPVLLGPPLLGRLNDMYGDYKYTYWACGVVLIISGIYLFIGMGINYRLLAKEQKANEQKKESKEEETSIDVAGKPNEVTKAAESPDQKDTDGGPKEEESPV
Assay: Inhibition of MCT1 uptake of probe substrate 2-thiophene glyoxylate in MDCK-II cells
Type: cell-based
Experimental: Transport studies with human PepT1 (SLC15A1), LAT1 (SLC7A5) and MCT1 (SLC16A1) were conducted in MDCK-II cells expressing the human transporter or control cells expressing a vector with Green Fluorescence Protein. Cells were transfected using a proprietary, transient transfection system (OPTI-EXPRESSION Technology, BioIVT). The results from the control cells were used to correct for substrate permeation by routes other than the transporter being investigated in the study. […] Specifically, Net Transporter Mediated Substrate Uptake (pmol/min/cm^2) = (Cellular accumulation in the presence of the transporter) − (Mean cellular accumulation in the absence of the transporter). MDCK-II cells were maintained in DMEM with low glucose and 10% FBS. Cells were used at passages up to 40 were seeded at 60,000 ± 10,000 cells/well on 96-well plates approximately 24 h before transfection, and transport assays were performed approximately 48 h after transfection. Transport studies in MDCK-II cells were conducted in 96-well insert plates with permeable membrane (0.4 µm) and receiver tray (Millipore MultiScreen Filter 96-well).
Transport studies with PepT1 were conducted in 96-well cell culture plate with wells containing a monolayer of MDCK-II cells grown on a permeable support and a corresponding 96-well receiver tray. Cell plates are maintained at 37 °C in 5% CO2 atmosphere prior to initiation of the transport experiment. Pre-incubation was conducted in HBSS, pH 7.4. The transport experiments were conducted in HBSS with Bis–Tris, pH 5.5, without phenol red. Both pre-incubation and incubation were conducted at 37 °C. All final assay solutions of probe substrate, reference inhibitor or test article contain 0.5% (v/v) DMSO (vehicle control). The culture plate insert […] was washed with warm HBSS three times and then blotted dry. The culture plate wells […] were washed with warm HBSS three times. 100 µL of 37 °C HBSS pH 7.4 pre-incubation buffer to the apical compartment as follows: for the probe substrate transport assay, the HBSS contains vehicle; for the reference inhibition assay, the HBSS contains the reference inhibitor at the required concentration; for the test article assays, the HBSS in each well contains test compound at the specified concentration. The plates were incubated at 37 °C with orbital shaking at approximately 60 rpm for the pre-incubation (30 min), aspirated and then 100 µL of the experimental buffer was added. […] Then a 30-µL sample was taken and mixed with 200 µL of scintillation fluid and scintillation counted (1450 Microbeta, Perkin-Elmer). […]

Ki (Cheng-Prusoff equation from IC50, competitive inhibition assumed, read-out: affinity (Ki) MCT1): 4.3 mM | IC50 (probe 2-thiophene glyoxylate 500 µM, positive control phloretin 500 µM): 15 mM
SMILES: CC(=O)N[C@@H](CC(C)C)C(=O)O [N-acetyl-L-leucine]
